The text below walks through data of US11440932B2, “Surfactant compounds-clips for extraction and stabilization in solution of membrane proteins” (CENTRE NATIONAL DE LA RECHERCHE SCIENTIFIQUE, priority 2017, dated 2022).

Non-standard residues stand in square brackets, D forms with d. Residues, ends and D or L forms follow the SMILES beside them. ξ: configuration not given here. *: point of attachment. Myristoyl = CCCCCCCCCCCCCC(=O)*; Lauroyl = CCCCCCCCCCCC(=O)*; Decanoyl = CCCCCCCCCC(=O)*; ξE = NC(CCC(=O)O)C(=O)O; ξD = NC(CC(=O)O)C(=O)O

Series [1] has as its target T1, BmrA (Bacillus subtilis, UniProt O06967).
T1 construct: His tag; made in house; host or cells: E. coli C41(DE3)
The series is described as follows: Extraction of BmrA from membranes (SDS-PAGE of supernatant). The settings on record: detergent 10 g/l unless indicated otherwise; 2 h at 4° C. Set-up: species or system bacterial; overexpressed in E. coli C41DE3. On the procedure: (§1) FIG. 6 depicts the extraction of the membrane proteins BmrA (panels A and C) and AcrB (panels B and D) using commercial detergents and the molecules of the invention (panels A and B, from left to right): SDS, DDM, FC12, TX100, compounds of the invention 1.4, 1.5, 2.3a, 2.3b, 2.3c, 2.3d, 2.3e, 2.3f, 2.3g, 2.3h, 2.3i, 3.7a, 3.7b; panel C: compounds of the invention 3.7c 0.8%, 3.7d 0.16%, 3.7e 0.8%, 3.7f 0.3%, 3.7g 0.4%, 3.7h 0.2%, 3.7i 0.07%, 3.7j 0.09%, 3.7k, 3.7l, 0.25%, 3.9a, 4.5a, 4.5b, 4.5c, 4.5d 0.34%, 4.6a, 4.6b, 4.6c, 4.6d, 5.3a, 5.3b, 5.3c 0.3%, 5.3d 0.3%; panel D: 3.7c, 3.7d, 3.7e, 3.7f, 3.7h, 3.7i 0.1%, 3.7j, 3.7k, 3.7l, 3.9a, 4.5a, 4.5b, 4.5c, 4.5d, 4.6a, 4.6b, 4.6c, 4.6d. The detergents are added at 10 g/l (1%), unless indicated otherwise. The equivalent of 20 μg of proteins of the extracted fraction after centrifugation at 100 000×g for 30 min is deposited on 10% SDS-PAGE, stained with Coomassie blue after migration. BmrA migrates in its monomeric form to the level of the 55 kDa band; AcrB migrates in its monomeric form to the level of the 100 kDa band. SDS=sodium dodecyl sulfate; DDM=β-D-dodecyl maltoside; FC12=foscholine-12; TX100=triton X-100.
(§2) The extraction capacity of the detergents of the series is tested on membranes in which BmrA or AcrB are strongly expressed. The extraction with the clips (molecules of the invention) is compared to that obtained with commercial detergents, used as reference.
(§3) Procedure. BmrA represents 25% of the proteins present in the overexpression system used (E. coli, C41DE3). These membranes are prepared as described previously (Matar-Merheb, R. et al. ([11])). The membranes containing AcrB (approximately 20% of the membrane proteins, same expression system as BmrA) were prepared as described previously (Seeger, M. A. et al. ([21])). The detergents are used at 10 g/l unless indicated otherwise, and the proteins diluted at 2 g/l in a 20 mM Tris-HCl buffer, pH 8.0, 100 mM NaCl, 15% glycerol, with protease inhibitors (Roche) added thereto at an amount of one tablet/100 ml. The mixture (T) is incubated for 2 h at 4° C. then centrifuged for 1 h at 4° C. at 100 000×g in order to separate the extracted fraction (supernatant, S) from that which is not extracted (pellet). The supernatants are deposited on 10% SDS-PAGE and stained with Coomassie blue after migration. The foscholine 12, DDM and LMNG originate from Anatrace, the SDS and Triton X100 originate from Sigma-Aldrich.

The nature of series [2]: Critical micelle concentration (CMC) by DPH fluorescence. In kind it is physicochemical. Conditions: 50 mM tris-HCl, pH 8.0. On the procedure: FIG. 4 represents the fluorescence (%) of DPH (1,6-diphenyl-1,3,5-hexatriene) in the presence of increasing concentrations (0.0001 mM, 0.001 mM, 0.01 mM, 0.1 mM, 1 mM and 10 mM) of clips (compounds of the invention), exemplified with the compounds #3.7e (C13, points represented by squares) and 3.7f (C18, points represented by circles). The experiment is carried out in triplicates. In accordance with Chattopadhyay, A. & London, E ([22]), the CMC corresponds to the concentration at which the breakage in the slope is observed, here at 20 μM for 3.7f and 2 mM for 3.7e (black symbols).
Procedure. The molecules of the invention were prepared in a range of concentrations extending from 0.1 μM to 10 mM in 50 mM tris-HCl, pH 8.0 and neutralized at this pH. To 80 μl of each solution (triplicate), the same volume of 10 μM of 1,6-diphenyl-1,3,5-hexatriene (DPH, Sigma, D208000) is added, prepared at 100 μM in tetrahydrofuran then diluted 10-fold in H2O. The increase in the fluorescence of the DPH occurs when the latter find micelles of clips into which it can insert itself (Chattopadhyay, A. & London, E. Fluorimetric determination of critical micelle concentration avoiding interference from detergent charge. Anal Biochem 139, 408-412 (1984) ([22])). The fluorescence is read with a Xenius SAFAS fluorimeter by exciting at 358 nm and recording the fluorescence emission at 430 nm, with slits of 9 to 10 nm for the excitation and the emission and a gain of 100 to 150, depending on the cases.
Results. The CMC of the detergents is the concentration starting from which they associate with one another to form micelles, in which, in aqueous solution, the hydrophobic portions are grouped together at the center and the hydrophilic regions are exposed to the solvent. […] A typical result obtained with a compound 3.7 provided with a C13 (3.7e) or C18 ([…]) aliphatic chain is illustrated in FIG. 4.

The target of series [3] is T2, AcrB (Escherichia coli, UniProt P31224).
T2 construct: made in house; host or cells: E. coli C41(DE3)
The series is described as follows: Extraction of AcrB from membranes (SDS-PAGE of supernatant). Further details: species or system bacterial; same expression system (E. coli C41DE3). The settings on record: for selective extraction AcrB versus BmrA: comparison of extraction of AcrB and BmrA; for extraction of AcrB: detergent 10 g/l unless indicated otherwise, 2 h at 4° C. The procedure: as §1, §2, §3

T2 sequence (P31224 whole entry): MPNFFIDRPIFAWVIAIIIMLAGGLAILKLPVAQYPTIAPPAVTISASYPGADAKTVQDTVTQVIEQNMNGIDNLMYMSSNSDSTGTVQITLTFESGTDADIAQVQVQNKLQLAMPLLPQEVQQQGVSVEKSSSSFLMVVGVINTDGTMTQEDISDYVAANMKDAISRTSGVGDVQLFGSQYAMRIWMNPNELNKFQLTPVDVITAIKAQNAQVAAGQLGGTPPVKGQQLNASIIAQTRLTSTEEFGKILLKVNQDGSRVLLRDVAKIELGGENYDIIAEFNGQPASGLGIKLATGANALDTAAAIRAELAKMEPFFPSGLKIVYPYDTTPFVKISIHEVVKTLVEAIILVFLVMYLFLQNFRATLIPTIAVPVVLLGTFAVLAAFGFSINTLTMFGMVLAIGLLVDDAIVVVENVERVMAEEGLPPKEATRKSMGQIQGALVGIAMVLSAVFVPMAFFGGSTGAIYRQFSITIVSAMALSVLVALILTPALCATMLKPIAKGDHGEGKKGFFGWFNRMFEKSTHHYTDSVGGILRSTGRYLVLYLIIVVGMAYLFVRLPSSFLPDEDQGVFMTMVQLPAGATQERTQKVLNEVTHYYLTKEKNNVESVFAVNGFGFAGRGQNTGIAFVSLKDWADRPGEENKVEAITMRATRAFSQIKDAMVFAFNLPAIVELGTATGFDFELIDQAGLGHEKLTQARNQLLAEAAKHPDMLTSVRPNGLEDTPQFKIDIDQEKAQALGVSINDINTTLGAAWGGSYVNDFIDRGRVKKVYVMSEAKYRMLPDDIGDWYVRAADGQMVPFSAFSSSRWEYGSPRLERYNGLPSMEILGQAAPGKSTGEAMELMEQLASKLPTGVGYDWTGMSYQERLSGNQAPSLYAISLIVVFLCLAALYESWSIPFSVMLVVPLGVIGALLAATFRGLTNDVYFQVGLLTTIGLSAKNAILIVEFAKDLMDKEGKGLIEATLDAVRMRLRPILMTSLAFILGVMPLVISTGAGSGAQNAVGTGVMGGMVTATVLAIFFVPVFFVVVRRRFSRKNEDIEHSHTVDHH
T1 sequence (O06967 whole entry): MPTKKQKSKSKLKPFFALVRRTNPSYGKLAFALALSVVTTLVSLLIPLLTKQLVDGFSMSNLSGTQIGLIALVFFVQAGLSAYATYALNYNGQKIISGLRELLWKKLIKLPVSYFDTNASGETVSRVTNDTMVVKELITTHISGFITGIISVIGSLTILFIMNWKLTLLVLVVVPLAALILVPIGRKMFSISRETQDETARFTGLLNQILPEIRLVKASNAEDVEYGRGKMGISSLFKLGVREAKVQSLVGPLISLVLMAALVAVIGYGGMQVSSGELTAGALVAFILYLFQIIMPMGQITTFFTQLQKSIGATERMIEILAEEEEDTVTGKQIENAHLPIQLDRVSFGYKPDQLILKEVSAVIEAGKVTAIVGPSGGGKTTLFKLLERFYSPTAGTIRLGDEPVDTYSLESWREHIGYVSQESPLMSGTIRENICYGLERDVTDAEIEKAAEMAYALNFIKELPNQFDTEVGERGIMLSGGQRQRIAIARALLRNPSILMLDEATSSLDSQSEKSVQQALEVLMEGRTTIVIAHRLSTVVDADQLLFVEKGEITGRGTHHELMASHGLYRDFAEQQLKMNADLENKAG

Consider `CCCNC(=O)[C@H](CO)NCC(=O)O` [Compound 1.4], for which the “extraction of BmrA” value in series [1] is reported as “extracting”.
For `CCCNC(=O)[C@H](CO)N(CC(=O)O)CC(=O)O` [Compound 1.5], the “CMC” value in series [2] came out at 2.5 mM. Moreover, in series [3], the “selective extraction AcrB versus BmrA” value is listed as “more effectively extract AcrB” and the “extraction of AcrB” value is on record as “extracting”. The “extraction of BmrA” value in series [1] was “partially extracting”.
`CCCCCCCCCCCCCC(=O)N[C@@H](CO)C(=O)N[C@H](CCC(=O)O)C(=O)O` [Compound 2.3a] (HELM PEPTIDE1{[CCCCCCCCCCCCCC(=O)[*:2]].S.[dE]}$$$$V2.0): in series [2], the “CMC” value came out at 2 mM. In series [3], the “extraction of AcrB” value is “extracting”. The “extraction of BmrA” value in series [1] is “extracting”.
Take `CCCCCCCC(=O)N[C@@H](CO)C(=O)N[C@H](CCC(=O)O)C(=O)O` [Compound 2.3b] (HELM PEPTIDE1{[CCCCCCCC(=O)[*:2]].S.[dE]}$$$$V2.0): in series [2], the “CMC” value was determined as 5 mM. For the same compound, the “extraction of AcrB” value in series [3] was “extracting”. The “extraction of BmrA” value in series [1] is reported as “non-extracting”.
For `CCCCCCCCC(=O)N[C@@H](CO)C(=O)N[C@H](CCC(=O)O)C(=O)O` [Compound 2.3c] (HELM PEPTIDE1{[CCCCCCCCC(=O)[*:2]].S.[dE]}$$$$V2.0), the “CMC” value in series [2] is recorded as 3.5 mM. Also, the “extraction of AcrB” value in series [3] is recorded as “extracting”. Further, in series [1], the “extraction of BmrA” value is “non-extracting”.
Turning to `CCCCCCCCCC(=O)N[C@@H](CO)C(=O)N[C@H](CCC(=O)O)C(=O)O` [Compound 2.3d] (HELM PEPTIDE1{[CCCCCCCCCC(=O)[*:2]].S.[dE]}$$$$V2.0), in series [2], the “CMC” value is 2 mM. Besides, the “extraction of AcrB” value in series [3] is “extracting”. Besides, the “extraction of BmrA” value in series [1] is “extracting”.
As to `CCCCCCCCCCCC(=O)N[C@@H](CO)C(=O)N[C@H](CCC(=O)O)C(=O)O` [Compound 2.3e] (HELM PEPTIDE1{[CCCCCCCCCCCC(=O)[*:2]].S.[dE]}$$$$V2.0), the “CMC” value in series [2] was 1 mM. Moreover, the “extraction of AcrB” value in series [3] was “extracting”.
For the compound `CCCCCCCCCCCCC(=O)N[C@@H](CO)C(=O)N[C@H](CCC(=O)O)C(=O)O` [Compound 2.3f], the “CMC” value in series [2] came out at 0.8 mM. Besides, in series [3], the “extraction of AcrB” value is “extracting”. The “extraction of BmrA” value in series [1] was “extracting”.
Regarding `CCCCCCCCCCCCCC(=O)N[C@@H](CO)C(=O)N[C@H](CCC(=O)O)C(=O)O` [Compound 2.3g] (HELM PEPTIDE1{[CCCCCCCCCCCCCC(=O)[*:2]].S.[dE]}$$$$V2.0), the “extraction of AcrB” value in series [3] is given as “extracting”. In addition, the “extraction of BmrA” value in series [1] is given as “extracting”.
As for `CCCCCCCCCCCCCCCC(=O)N[C@@H](CO)C(=O)N[C@H](CCC(=O)O)C(=O)O` [Compound 2.3h] (HELM PEPTIDE1{[CCCCCCCCCCCCCCCC(=O)[*:2]].S.[dE]}$$$$V2.0), the “CMC” value in series [2] came out at 0.5 mM. Also, the “extraction of AcrB” value in series [3] is recorded as “extracting”. The “extraction of BmrA” value in series [1] is on record as “extracting”.
Take `[2H]C([2H])([2H])C([2H])([2H])C([2H])([2H])C([2H])([2H])C([2H])([2H])C([2H])([2H])C([2H])([2H])C([2H])([2H])C([2H])([2H])C([2H])([2H])C([2H])([2H])C(=O)N[C@@H](CO)C(=O)N[C@H](CCC(=O)O)C(=O)O` [Compound 2.3i]: the “extraction of AcrB” value in series [3] was “extracting”. Further, the “extraction of BmrA” value in series [1] is given as “extracting”.
With `CCCCCCCCCC(=O)N[C@@H](COCc1cn(CCO[C@@H]2OC(CO)[C@@H](O)C(O)C2O)nn1)C(=O)N[C@H](CCC(=O)O)C(=O)O` (stereo partly drawn) [Compound 3.7a], in series [2], the “CMC” value amounted to 2 mM. Also, the “extraction of AcrB” value in series [3] is on record as “do not extract”. Also, the “extraction of BmrA” value in series [1] is given as “non-extracting”.
Take `CCCCCC(CCCCC)C(=O)N[C@@H](COCc1cn(CCO[C@@H]2OC(CO)[C@@H](O)C(O)C2O)nn1)C(=O)N[C@H](CCC(=O)O)C(=O)O` (stereo partly drawn) [Compound 3.7i]: in series [2], the “CMC” value is 1 mM. Moreover, the “extraction of AcrB” value in series [3] was “do not extract”. In series [1], the “extraction of BmrA” value is on record as “non-extracting”.
Regarding `O=C(O)CC[C@@H](NC(=O)[C@H](COCc1cn(CCO[C@@H]2OC(CO)[C@@H](O)C(O)C2O)nn1)NC(=O)CCCCC1CCCCC1)C(=O)O` (stereo partly drawn) [Compound 3.7k], the “CMC” value in series [2] came to 1 mM. Further, the “extraction of AcrB” value in series [3] was “do not extract”. Moreover, in series [1], the “extraction of BmrA” value is “non-extracting”.
For `CCCCCCCCCC(=O)NC(CC(=O)O)C(=O)NC(CCC(=O)O)C(=O)O` (stereo not drawn) [Compound 4.5a] (Decanoyl-Asp-Glu-OH; configuration not given here) the same measures were 3 mM, “partially extract” and “non-extracting”.
For `CCCCCCCCCCCC(=O)NC(CC(=O)O)C(=O)NC(CCC(=O)O)C(=O)O` (stereo not drawn) [Compound 4.5b] (Lauroyl-Asp-Glu-OH; configuration not given here) the same measures were 2 mM, “extracting” and “partially extracting”.
For the compound `CCCCCCCCCCCC(=O)NC(CC(=O)NC(CCC(=O)O)C(=O)O)C(=O)NC(CCC(=O)O)C(=O)O` (stereo not drawn) [Compound 4.6b] (Lauroyl-Asp(Glu)-Glu-OH; configuration not given here), the “CMC” value in series [2] is reported as 1 mM. Moreover, the “selective extraction AcrB versus BmrA” value in series [3] is “not extract, or only very slightly extract, AcrB, unlike BmrA”.
On to `CCCCCCCCCCCCCC(=O)NC(CC(=O)N[C@@H](CCC(=O)O)C(=O)O)C(=O)NC(CCC(=O)O)C(=O)O` (stereo partly drawn) [Compound 4.6c] (Myristoyl-[ξD](Glu)-[ξE]-OH), for which the “CMC” value in series [2] was determined as 1 mM. Moreover, the “extraction of AcrB” value in series [3] is “extracting”.
Regarding `CCCCCCCCCCCCOP(=O)([O-])OCC[N+](C)(C)C` [FC12, foscholine-12, reference compound], in series [3], the “extraction of AcrB” value is listed as “effectively extracted”. The “extraction of BmrA” value in series [1] is given as “effectively extracted”.
As to `CCCCCCCCCCCCOS(=O)(=O)[O-].[Na+]` [SDS, sodium dodecyl sulfate, reference compound], the “extraction of AcrB” value in series [3] is on record as “effectively extracted”. Also, in series [1], the “extraction of BmrA” value is given as “effectively extracted”.
Turning to “triton X-100 [TX100, reference compound]”, in series [3], the “extraction of AcrB” value is “solubilize”. For the same compound, in series [1], the “extraction of BmrA” value was “solubilize”.
